Assay results from PMC12405493, “Selective ubiquitination of drug-like small molecules by the ubiquitin ligase HUWE1” (Nature Communications, 2025).

What was measured:
HUWE1^HECT [1] = molecular target: T1, HUWE1^HECT (Homo sapiens, UniProt Q7Z6Z7); assay: Single-turnover assay, Ub thioester transfer from E2 to HUWE1^HECT; type: biochemical; conditions: HECT^Δ4 variant
T1 construct: HUWE1^HECTΔ4 (residues 3993–4370); made in house
T1 sequence (Q7Z6Z7 3993-4370): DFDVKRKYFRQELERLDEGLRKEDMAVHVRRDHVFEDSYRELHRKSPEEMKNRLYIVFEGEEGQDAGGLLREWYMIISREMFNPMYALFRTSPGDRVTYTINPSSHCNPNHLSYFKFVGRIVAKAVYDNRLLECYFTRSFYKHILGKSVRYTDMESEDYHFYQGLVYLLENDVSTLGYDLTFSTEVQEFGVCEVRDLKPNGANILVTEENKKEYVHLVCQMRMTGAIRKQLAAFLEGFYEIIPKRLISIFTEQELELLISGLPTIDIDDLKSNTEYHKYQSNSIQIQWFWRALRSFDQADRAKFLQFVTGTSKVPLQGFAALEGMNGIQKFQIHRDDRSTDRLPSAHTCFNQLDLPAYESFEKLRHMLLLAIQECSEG
Procedure: E3-free multi-turnover ubiquitination reactions to monitor E1 and E2 activities contained 1 μM UBA1, 5 μM UBE2L3, 100 μM Ub, 2 mM ATP and 10 mM MgCl2 in 25 mM HEPES (pH 7.4), and 0.2 mM TCEP. Reactions were incubated at 30 °C for 10 min (or otherwise, as specified) and quenched with 50 mM EDTA, followed by the addition of SDS-loading dye. Single-turnover E2~Ub discharge assays were performed similarly to previous studies. In short, 1 μM UBA1, 5 μM UBE2L3, and 100 μM Ub were pre-incubated with 2 mM ATP and 10 mM MgCl2 in 25 mM HEPES (pH 7.4) at 30 °C for 30 min, diluted 4-fold, and quenched with 50 mM EDTA. Thereafter, 1.2 μM of the UBE2L3~Ub product was incubated with 5 μM HUWE1^HECT at 30 °C for 1 min.

HUWE1^HECT [2] = molecular target: T2, HUWE1^HECT (Homo sapiens, UniProt Q7Z6Z7); assay: Analytical SEC / intact protein MS of HUWE1^HECT-driven compound ubiquitination; type: biochemical; conditions: for Compound ubiquitination by HUWE1^HECT (SEC, intact protein MS): + ATP, WT Ub; for Inhibitor ubiquitination activity of HUWE1^HECT compared with other HECT domains: SEC, monoubiquitinated compound, HUWE1^HECT signal normalized to 1
T2 construct: the isolated HECT domain of HUWE1 (HUWE1^HECT); made in house
T2 sequence (Q7Z6Z7 3993-4374): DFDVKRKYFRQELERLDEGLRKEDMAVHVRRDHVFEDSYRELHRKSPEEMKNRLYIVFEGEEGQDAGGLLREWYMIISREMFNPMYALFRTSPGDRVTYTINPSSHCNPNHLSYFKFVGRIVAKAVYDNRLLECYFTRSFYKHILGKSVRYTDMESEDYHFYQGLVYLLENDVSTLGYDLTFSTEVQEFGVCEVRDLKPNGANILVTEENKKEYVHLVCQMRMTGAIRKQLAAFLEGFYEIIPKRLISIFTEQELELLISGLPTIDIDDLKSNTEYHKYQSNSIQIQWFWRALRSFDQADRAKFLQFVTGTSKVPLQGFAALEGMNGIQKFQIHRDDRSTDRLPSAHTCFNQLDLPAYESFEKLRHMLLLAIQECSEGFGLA
Procedure: HUWE1^HECT multi-turnover ubiquitination reactions were performed with 500 nM UBA1, 5 μM UBE2L3, 5 μM HUWE1^HECT and 100 μM Ub in 20 mM HEPES (pH 7.5), 100 mM NaCl and 0.5 mM TCEP in the presence of 1 mM ATP and 3 mM MgCl2. After 15 min incubation at 30 °C, the mixture was injected into a Superdex 75 Increase 3.2/300 column (Cytiva), equilibrated in 25 mM HEPES (pH 7.5), 100 mM NaCl, and 0.5 mM TCEP at 4 °C. Chromatograms were analyzed and peaks integrated with Unicorn v.7.9.02440 (Cytiva). Data were plotted with Prism v.9.3.1 (GraphPad).
Intact protein LC/MS: protein molecular weights (MWs) were determined by LC/MS on a nanoflow chromatography system (Dionex U3000 nanoRSLC), hyphenated to a hybrid quadrupole/orbitrap mass spectrometer (Q Exactive HF) with a NanoFlex ion source and controlled by Xcalibur v.2.4 (all Thermo Fisher Scientific). Proteins were dissolved in 2% (v/v) acetonitrile (ACN), 0.1% (v/v) formic acid (FA) to a concentration of 100 fmol μL^−1. For each analysis, 500 fmol were enriched on a pre-column (0.15 ×20 mm, Reprosil-Pur120 C18-AQ 5 μm; Dr. Maisch GmbH) and separated on an analytical RP-C18 column (0.075 mm×200 mm, Reprosil-Pur 120 C18-AQ; 1.9 μm, Dr. Maisch GmbH), using a 23-min linear gradient of 10–80% (v/v) ACN/0.1% (v/v) FA at 300 nl min^−1. MS data were acquired in full MS mode across the 500–1800 m/z-range at a resolution setting of 120,000 FWHM, an AGC target of 1*10e6 and a maximum fill time of 200 ms. Charge state deconvolution and MW representation were performed in Freestyle v.1.9 (Thermo Fisher Scientific), using default settings for high-resolution data.

other HECT domains = system: other HECT domains; design: method as in PMID 25253726; conditions: in vitro; cited from earlier work
colorectal cancer cells = system: colorectal cancer cells; design: method as in PMID 25253726; conditions: cited from earlier work

SMILES: Cc1c(C(=O)Nc2ccc(CN)cc2)ncnc1N1CCC(C#N)(c2ccccc2)CC1 [BI8622]
- Ub transfer from the E2 to HUWE1^HECT (HUWE1^HECT [1]): do not obstruct Ub transfer from the E2 to HUWE1^HECT
- Compound ubiquitination by HUWE1^HECT (SEC, intact protein MS) (HUWE1^HECT [2]; 20 μM compound): assigned to the respective monoubiquitinated compound by intact protein MS
- Inhibitor ubiquitination activity of HUWE1^HECT compared with other HECT domains (HUWE1^HECT [2]): substantially higher activity for HUWE1^HECT than for the other HECT domains
- IC50 (other HECT domains): > 50 µM
- Cytotoxic effects (colorectal cancer cells): selective cytotoxic effects

SMILES: NCc1cccc(CNc2ncnc3c(N4CCN(Cc5ccccc5)CC4)ncnc23)c1 [BI8626]
- Ub transfer from the E2 to HUWE1^HECT (HUWE1^HECT [1]): do not obstruct Ub transfer from the E2 to HUWE1^HECT
- Compound ubiquitination by HUWE1^HECT (SEC, intact protein MS) (HUWE1^HECT [2]; 20 μM compound): assigned to the respective monoubiquitinated compound by intact protein MS
- Compound ubiquitination by HUWE1^HECT (SEC) (HUWE1^HECT [2]; 20 μM compound, UbΔGG (residues 1–74) instead of WT Ub): No compound ubiquitination occurred
- Inhibitor ubiquitination activity of HUWE1^HECT compared with other HECT domains (HUWE1^HECT [2]): substantially higher activity for HUWE1^HECT than for the other HECT domains
- IC50 (other HECT domains): > 50 µM
- Cytotoxic effects (colorectal cancer cells): selective cytotoxic effects
